# Where no end group is shown, it is not given here.
# Tests used:
# [1] = tested on: BAZ2 BRD; design: method as in Structural Genomics Consortium [SGC] website; details: ref Structural Genomics Consortium [SGC] website; cited from earlier work
# [2] = target: T1, TIP5 BRD (Homo sapiens, UniProt Q9UIF9); assay: ITC, histone peptide binding to TIP5 BRD; details: 20 mM HEPES (pH 7.5–8), 150 mM NaCl, 0.5 mM TCEP, 293 or 298 K
# T1 construct: (residues 1797- 1899 for TIP5, residues); hexa-histidine (pNIC28-Bsa4, TEV site) (N, cleaved yes); made in house; host or cells: E. coli BL21(DE3) Rosetta or BL21(DE3)-R3-pRARE2
# T1 sequence (Q9UIF9 1797-1899): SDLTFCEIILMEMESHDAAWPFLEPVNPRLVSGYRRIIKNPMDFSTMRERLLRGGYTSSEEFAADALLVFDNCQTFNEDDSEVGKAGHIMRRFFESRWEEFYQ
# Procedure: All calorimetric experiments were performed on an ITC200 or VP-ITC microcalorimeters (MicroCal). […] The data were analyzed with the MicroCal ORIGIN software package using, in most cases, a single binding site model. The first data point was excluded from the analysis. […]
# (§1) The cDNAs encoding tandem PHD zinc finger and bromodomain of human TIP5 […]
# GeneBank: Q9UIF8) were synthesized by GenScript with codons optimized f or E. coli. expression and were subcloned into a modif ied pET15 vector using NdeI/XhoI sites f or expression as recombinant proteins with a His6 tag fused with small ubiquitin like modifier (SUMO)-1 fusion tag at the N terminus. cDNA sequences were used as a […]
# Single PHD zinc f ingers were introduced into the same modif ied SUMO tagged plasmid whereas single bromodomains were f urther subcloned into pET28 derived expression vectors, pNIC28- Bsa4 using ligation independent […]
# Protein Expression and Purification […]
# (§2) competent BL21(DE3) Rosetta cells (Invitrogen) or into BL21 (DE3)-R3-pRARE2 cells (phage- resistant derivative with a pRARE plasmid encoding rare codon tRNAs). Cells were grown at 37 °C in Terrific Broth (Sigma) from overnight cultures until A600 reached between 0.6- 0.8, then the media was cooled and 0.2 mM isopropyl-β-Dthiogalactopyranoside (IPTG) was added to induce the protein expression at 20 °C f or 16 hours. An extra 0.1 mM ZnCl 2 was added in the protein expression to those targets that contained a PHD zinc f inger.
# Different purification procedures have been optimized for each target protein. In common, E. coli overexpressed cells were lysed using an EmulsiFlex-C5 hig h-pr es s ure homogenizer (Avestin - Mannheim, Germany) or high -pressure cell disruption (Constant Systems Limited) in loading buffer A from the nickel affinity column (HisTrap Chelating FF 5ml) in the presence of Protease Inhibitor Cocktail EDTA-free (Roche). […]
# on a Beckman Coulter Avanti J-20 XP centrif uge). After centrif ugation, the supernatant was loaded onto the nickel column and eluted in an imidazole linear gradient. The
# [3] = target: T2, BAZ2B BRD (Homo sapiens, UniProt Q9UIF8); assay: ITC, histone peptide binding to BAZ2B BRD; details: 20 mM HEPES (pH 7.5–8), 150 mM NaCl, 0.5 mM TCEP, 293 or 298 K
# T2 construct: 2054- 2168 f or BAZ2B) regions; hexa-histidine (pNIC28-Bsa4, TEV site) (N, cleaved yes); made in house; host or cells: E. coli BL21(DE3) Rosetta or BL21(DE3)-R3-pRARE2
# T2 sequence (Q9UIF8 2054-2168): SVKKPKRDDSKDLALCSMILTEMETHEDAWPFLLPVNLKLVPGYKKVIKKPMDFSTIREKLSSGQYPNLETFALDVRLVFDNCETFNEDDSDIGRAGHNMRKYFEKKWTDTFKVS
# Procedure: (§3) All calorimetric experiments were performed on an ITC200 or VP-ITC microcalorimeters (MicroCal). Protein solutions were buffer exchanged by gel filtration into buffer (20 mM HEPES [pH 8], 150 mM NaCl, 0.5 mM Tris [2-carboxyethyl]phosphine [TCEP]), and lyophilized histone peptides were dissolved in the same buffer. All measurements were carried out at 293 or 298 K. Protein solutions (60–120 μM) in the calorimetric cell were titrated with the peptide solutions (800–1,500 μM) in the syringe. The data were analyzed with the MicroCal ORIGIN software package using, in most cases, a single binding site model. The first data point was excluded from the analysis. […]
# as §1
# GeneBank: Q9UIF8) were synthesized by GenScript with codons optimized f or E. coli. expression and were subcloned into a modif ied pET15 vector using NdeI/XhoI sites f or expression as recombinant proteins with a His6 tag fused with small ubiquitin like modifier (SUMO)-1 fusion tag at the N terminus. cDNA sequences were used as a template to amplify single PHD zinc fingers (residues 1673- 1728 for TIP5; residues 2054- 2168 f or BAZ2B) regions. Single PHD zinc f ingers were introduced into the same modif ied SUMO tagged plasmid whereas single bromodomains were f urther subcloned into pET28 derived expression vectors, pNIC28- Bsa4 using ligation independent cloning (Stols et al., 2002).
# Protein Expression and Purification
# as §2, with “Best expression constructs encoding all target proteins were transformed into E. coli competent” for “competent”
# Different purification procedures have been optimized for each target protein. In common, E. coli overexpressed cells were lysed using an EmulsiFlex-C5 hig h-pr es s ure homogenizer (Avestin - Mannheim, Germany) or high -pressure cell disruption (Constant Systems Limited) in loading buffer A from the nickel affinity column (HisTrap Chelating FF 5ml) in the presence of Protease Inhibitor Cocktail EDTA-free (Roche).
# Lysates were cleared by centrif ugation (14,000 x g f or 45m in at 4 °C, JLA 16.250 rotor, on a Beckman Coulter Avanti J-20 XP centrif uge). After centrif ugation, the supernatant was loaded onto the nickel column and eluted in an imidazole linear gradient. The
# [4] = target: T3, BAZ2B PHD-BRD (Homo sapiens, UniProt Q9UIF8); assay: ITC, histone peptide binding to tandem BAZ2B PHD-BRD; details: 20 mM HEPES (pH 7.5–8), 150 mM NaCl, 0.5 mM TCEP, 293 or 298 K, protein 60–120 μM in cell, peptide 800–1,500 μM in syringe, ± error of nonlinear least-squares fit
# T3 construct: human BAZ2B (residues 1928-2168,; His6-SUMO (N, cleaved yes); made in house; host or cells: E. coli BL21(DE3) Rosetta or BL21(DE3)-R3-pRARE2
# T3 sequence (Q9UIF8 1928-2168): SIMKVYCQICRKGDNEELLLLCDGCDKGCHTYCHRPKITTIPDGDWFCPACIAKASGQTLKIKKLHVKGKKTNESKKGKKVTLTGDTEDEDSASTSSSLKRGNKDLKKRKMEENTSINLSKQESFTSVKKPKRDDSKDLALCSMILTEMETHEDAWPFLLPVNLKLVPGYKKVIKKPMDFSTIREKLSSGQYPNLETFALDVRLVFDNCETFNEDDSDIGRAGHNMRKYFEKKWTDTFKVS
# Procedure: as §3, §1
# (§4) GeneBank: Q9UIF8) were synthesized by GenScript with codons optimized f or E. coli. expression and were subcloned into a modif ied pET15 vector using NdeI/XhoI sites f or expression as recombinant proteins with a His6 tag fused with small ubiquitin like modifier (SUMO)-1 fusion tag at the N terminus. cDNA sequences were used as a template to amplify single PHD zinc fingers (residues 1673- 1728 for TIP5; residues 2054- 2168 f or BAZ2B) regions. […]
# [5] = target: T4, TIP5 PHD-BRD (Homo sapiens, UniProt Q9UIF9); assay: ITC, histone peptide binding to tandem TIP5 PHD-BRD; details: 20 mM HEPES (pH 7.5–8), 150 mM NaCl, 0.5 mM TCEP, 293 or 298 K, protein 60–120 μM in cell, peptide 800–1,500 μM in syringe, ± error of nonlinear least-squares fit
# T4 construct: (residues 1673– 1901, UniProt: Q9UIF9); His6-SUMO (N, cleaved yes); made in house; host or cells: E. coli BL21(DE3) Rosetta or BL21(DE3)-R3-pRARE2
# T4 sequence (Q9UIF9 1673-1901): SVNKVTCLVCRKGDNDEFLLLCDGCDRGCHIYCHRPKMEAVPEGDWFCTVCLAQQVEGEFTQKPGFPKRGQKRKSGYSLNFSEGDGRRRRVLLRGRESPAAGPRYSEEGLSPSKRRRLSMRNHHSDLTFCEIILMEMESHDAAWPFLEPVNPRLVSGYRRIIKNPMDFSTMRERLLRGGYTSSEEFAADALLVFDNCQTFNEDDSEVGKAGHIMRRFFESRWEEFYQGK
# Procedure: as §3, §1, §4
# [6] = target: T5, TIP5 PHD (Homo sapiens, UniProt Q9UIF9); assay: ITC, histone peptide binding to TIP5 PHD; details: 20 mM HEPES (pH 7.5–8), 150 mM NaCl, 0.5 mM TCEP, 293 or 298 K, protein 60–120 μM in cell, peptide 800–1,500 μM in syringe, ± error of nonlinear least-squares fit
# T5 construct: single PHD zinc fingers (residues 1673- 1728 for TIP5); residues; His6-SUMO (N, cleaved yes); made in house; host or cells: E. coli BL21(DE3) Rosetta or BL21(DE3)-R3-pRARE2
# T5 sequence (Q9UIF9 1673-1728): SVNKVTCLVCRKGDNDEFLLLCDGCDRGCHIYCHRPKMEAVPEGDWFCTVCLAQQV
# Procedure: as §3, §1, §4
# [7] = target: T6, BAZ2B PHD (Homo sapiens, UniProt Q9UIF8); assay: ITC, histone peptide binding to BAZ2B PHD; details: 20 mM HEPES (pH 7.5–8), 150 mM NaCl, 0.5 mM TCEP, 293 or 298 K, protein 60–120 μM in cell, peptide 800–1,500 μM in syringe, ± error of nonlinear least-squares fit
# T6 construct: 1928- 1983 for BAZ2B) and bromodomains; His6-SUMO (N, cleaved yes); made in house; host or cells: E. coli BL21(DE3) Rosetta or BL21(DE3)-R3-pRARE2
# T6 sequence (Q9UIF8 1928-1983): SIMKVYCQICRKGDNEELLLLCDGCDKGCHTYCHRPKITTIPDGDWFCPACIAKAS
# Procedure: as §3, §1, §4
# [8] = ITC, protein 60–120 μM in cell, peptide 800–1,500 μM in syringe, ± error of nonlinear least-squares fit
molecule,measurement,setting,value
CCCOc1ccn2c(C(C)=O)cc(-c3ccccc3S(C)(=O)=O)c2c1 [GSK2801],potency/selectivity in words,[1],selective nanomolar
GAK(Ac)RHRKVL [H4(14–22)K16ac],N,"[2]; ITC stoichiometry, ± fit error",1.186 ± 0.015
same,TΔS,[2]; ITC,-6.533 kcal/mol
same,ΔG,[2]; ITC,-6.207 kcal/mol
same,TΔS,"[2]; ITC, listed as H4(14-22)K16ac",-6.533 kcal/mol
same,ΔG,"[2]; ITC, listed as H4(14-22)K16ac",-6.206 kcal/mol
same,ΔH,"[2]; ITC, ± fit error",-12.740 ± 0.226 kcal/mol
same,ΔH,"[2]; ITC, ± fit error, listed as H4(14-22)K16ac",-12.740 ± 0.226 kcal/mol
same,N,"[3]; ITC stoichiometry, ± fit error",1.062 ± 0.064
same,TΔS,[3]; ITC,2.989 kcal/mol
same,ΔG,[3]; ITC,-5.809 kcal/mol
same,ΔH,"[3]; ITC, ± fit error",-2.820 ± 0.223 kcal/mol
CC(=O)NCCCC[C@H](NC(=O)CNC(=O)CNC(=O)[C@@H](NC(=O)[C@H](CO)NC(=O)[C@H](CCCCN)NC(=O)[C@H](CCCNC(=N)N)NC(=O)[C@H](C)NC(=O)[C@@H](NC(=O)[C@H](CCC(N)=O)NC(=O)[C@H](CCCCN)NC(=O)[C@@H](NC(=O)[C@H](CCCNC(=N)N)NC(=O)[C@H](C)N)[C@@H](C)O)[C@@H](C)O)[C@@H](C)O)C(=O)N[C@@H](C)C(=O)N1CCC[C@H]1C(=O)N[C@@H](CCCNC(=N)N)C(=O)N[C@@H](CCCCN)C(=O)O [H3(1–18)K14ac],Kd,[4],2.33 ± 0.19 µM
same,Kd,[5],1.87 ± 0.29 µM
GAK(Ac)RHRK(Ac)VL [H4(14–22)K16acK20ac],Kd,[2]; [8],26.1 ± 0.37 µM
same,Kd,[3]; [8],42.41 ± 0.42 µM
CNCCCC[C@H](NC(=O)[C@@H](NC(=O)[C@H](CCCNC(=N)N)NC(=O)[C@H](C)N)[C@@H](C)O)C(=O)N[C@@H](CCC(N)=O)C(=O)N[C@H](C(=O)N[C@@H](C)C(=O)N[C@@H](CCCNC(=N)N)C(=O)N[C@@H](CCCCN)C(=O)O)[C@@H](C)O [H3(1–9)K4me],Kd,[6],2.5 ± 0.43 µM
same,Kd,[7],3.98 ± 0.61 µM
GGK(Ac)GLGK(Ac)G [H4(6–13)K8acK12ac],Kd,[2]; [8],63.25 ± 0.11 µM
"Lys-Ser-Thr-Gly-Gly-Kac-Ala-Pro-Ala-Gln [H3(9-19)K14ac [R17A], mutated H3K14ac peptide, R17 to A17]",KD,[3]; [8],no binding
C[C@H](N)C(=O)N[C@@H](CCCNC(=N)N)C(=O)N[C@H](C(=O)N[C@@H](CCCCN)C(=O)N[C@@H](CCC(N)=O)C(=O)N[C@H](C(=O)N[C@@H](C)C(=O)N[C@@H](CCCNC(=N)N)C(=O)N[C@@H](CCCCN)C(=O)O)[C@@H](C)O)[C@@H](C)O [H3(1–9)],Kd,[6],2.51 ± 0.63 µM
same,Kd,[7],3.07 ± 0.71 µM
"Gly-Ala-Kac-Arg-His-Ala-Lys-Val-Leu [H4(14-22)K16ac [R19A], mutated H4K16ac peptide, R19 to A19]",KD,[2]; [8],no binding

# Reference: article PMC4291147, “Molecular Basis of Histone Tail Recognition by Human TIP5 PHD Finger and Bromodomain of the Chromatin Remodeling Complex NoRC” (Structure(London, England:1993), 2015)
